Laboratory results: patent US8778966B2, “Quinolinone derivatives as PARP and tank inhibitors” (Janssen Pharmaceutica, NV, priority 2007, dated 2014)
Where two headings read alike, the source gives them in different places.

What was measured:
Human PARP-1 enzyme = target: T1, Human PARP-1 enzyme (Homo sapiens, UniProt P09874); assay: In vitro Scintillation Proximity Assay (SPA) for PARP-1 inhibitory activity; type: biochemical; conditions: read-out: in vitro SPA assay PARP-1 pIC50 (converted)
T1 construct: purchased Trevigen
Summary of the method: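 SPA assay: nicked-DNA-activated PARP-1 (0.1–0.2 μg/ml) ADP-ribosylates biotinylated histones (2 μg/ml) using [3H]-NAD+, 20 min at RT in Tris pH 8/DTT/MgCl2, stopped with 2 mM NAD+. Blank-subtracted cpm expressed as % control; IC50 by linear interpolation, reported as pIC50 (10−5 to 3×10−9 M tested).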

HCT116 cells = assay: Antiproliferative activity, Alamar Blue assay, HCT116 cells; type: cell-based, human; set-up: key to HCT116 antiproliferative activity pIC50: pIC50 = -log IC50 (IC50: conc. reducing growth to 50% of control); conditions: for IC50: Homo sapiens, HCT-116, HCT116 cells, read-out: HCT116 antiproliferative activity pIC50 (converted)
Summary of the method: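 HCT116 cells seeded, adhered 24 h, then exposed to compound for 4 days; Alamar Blue (resazurin) added for 4 h at 37 °C, fluorescence read at 540/590 nm. Viability as % of untreated control, triplicate wells; IC50 by probit analysis, reported as pIC50.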

PC-3 cells = assay: Antiproliferative activity, Alamar Blue assay, PC-3 cells; type: cell-based, human; conditions: for IC50: Homo sapiens, PC-3, PC3 cells, read-out: PC3 antiproliferative activity pIC50 (converted)
Summary of the method: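 PC-3 cells seeded at 4.5×10^3 cells/ml, left to adhere 24 hr, then exposed to compound for 4 days. Resazurin (Alamar Blue) added for a further 24 hrs at 37° C; fluorescence read at 540/590 nm. Viability as % of untreated control, mean of 3 wells; IC50 by probit analysis, reported as pIC50.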

T1 sequence (P09874 whole entry): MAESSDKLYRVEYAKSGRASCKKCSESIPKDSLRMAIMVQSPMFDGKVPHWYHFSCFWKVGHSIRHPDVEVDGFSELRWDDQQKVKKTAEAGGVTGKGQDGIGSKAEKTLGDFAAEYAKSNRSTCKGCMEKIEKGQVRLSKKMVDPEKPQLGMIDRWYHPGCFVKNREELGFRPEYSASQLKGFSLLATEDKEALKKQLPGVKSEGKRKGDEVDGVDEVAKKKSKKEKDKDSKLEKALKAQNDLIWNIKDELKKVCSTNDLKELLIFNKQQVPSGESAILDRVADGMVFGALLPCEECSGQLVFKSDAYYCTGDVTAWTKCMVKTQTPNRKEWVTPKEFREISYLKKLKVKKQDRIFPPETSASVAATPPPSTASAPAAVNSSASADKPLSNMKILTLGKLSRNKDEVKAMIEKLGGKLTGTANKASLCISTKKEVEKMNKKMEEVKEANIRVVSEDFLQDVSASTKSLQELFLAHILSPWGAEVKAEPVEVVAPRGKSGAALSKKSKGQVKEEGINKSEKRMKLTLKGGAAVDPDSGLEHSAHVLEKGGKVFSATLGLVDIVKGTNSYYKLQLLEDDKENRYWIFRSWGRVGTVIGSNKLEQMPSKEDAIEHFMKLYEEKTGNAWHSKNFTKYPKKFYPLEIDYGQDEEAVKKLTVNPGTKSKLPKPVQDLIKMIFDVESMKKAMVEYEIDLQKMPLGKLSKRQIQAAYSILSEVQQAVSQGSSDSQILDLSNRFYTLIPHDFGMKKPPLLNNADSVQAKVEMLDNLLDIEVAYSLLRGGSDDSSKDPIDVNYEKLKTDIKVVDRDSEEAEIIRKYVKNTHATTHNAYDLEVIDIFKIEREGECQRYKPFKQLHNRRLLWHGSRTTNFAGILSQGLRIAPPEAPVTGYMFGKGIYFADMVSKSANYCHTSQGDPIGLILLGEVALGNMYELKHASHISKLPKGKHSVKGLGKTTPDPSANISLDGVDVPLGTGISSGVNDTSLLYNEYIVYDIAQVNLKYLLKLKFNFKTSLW

| Structure (SMILES) | IC50 (Human PARP-1 enzyme) [nM] | IC50 (HCT116 cells) [nM] | IC50 (PC-3 cells) [nM] | HCT116 antiproliferative activity pIC50 (HCT116 cells; HCT116 cells) | PC3 antiproliferative activity pIC50 (PC-3 cells; PC3 cells) | IC50 (HCT116 cells; Alamar Blue) [nM] | IC50 (PC-3 cells; Alamar Blue) [nM] |
| --- | --- | --- | --- | --- | --- | --- | --- |
| CCc1cc2ccc(C(C)(C#N)Cc3cccc(Br)c3C)cc2[nH]c1=O (stereo not drawn) [Compound 81] | 1260 | 316 | 501 | – | – | – | – |
| CCc1cc2ccc(C(C)(C#N)Cc3cccnc3)cc2[nH]c1=O (stereo not drawn) [Compound 97] | 39.8 | 2510 | > 10000 | – | – | – | – |
| Cc1cc2ccc(C(C)(C#N)Cc3noc(-c4cccc(C(F)(F)F)c4)n3)cc2[nH]c1=O (stereo not drawn) [Compound 70] | 3980 | 631 | 2510 | – | – | – | – |
| CCc1cc2ccc(C(C)(C#N)Cc3cccc(OCC4CC4)c3)cc2[nH]c1=O (stereo not drawn) [Compound 67] | 1000 | 1580 | 1260 | – | – | – | – |
| CCc1cc2ccc(C(C)(C#N)CC3COc4ccccc4O3)cc2[nH]c1=O (single isomer, unassigned) [Compound 47] | 398 | – | – | <5 | <5 | – | – |
| CCc1cc2ccc(C(C)(C#N)Cc3cccc(OCCCN4CCOCC4)c3)cc2[nH]c1=O (stereo not drawn) [Compound 68] | 1000 | 6310 | 7940 | – | – | – | – |
| CC(C#N)(Cc1ccccc1)c1ccc2cc(CO)c(=O)[nH]c2c1 (stereo not drawn) [Compound 40] | 2510 | 7940 | > 10000 | – | – | – | – |
| CCc1cc2ccc(C(C)(C#N)Cc3ccc4nccnc4c3)cc2[nH]c1=O (stereo not drawn) [Compound 87] | 79.4 | 1000 | 1000 | – | – | – | – |
| CCc1cc2ccc(C(C)(C#N)Cc3nn(C)c4ccccc34)cc2[nH]c1=O (stereo not drawn) [Compound 95] | 251 | 251 | 631 | – | – | – | – |
| CCc1cc2ccc(C(C)(C#N)Cc3cn4ccccc4n3)cc2[nH]c1=O (stereo not drawn) [Compound 96] | 126 | 5010 | > 10000 | – | – | – | – |
| CCc1cc2ccc(C(C)(C#N)Cc3nnsc3Cl)cc2[nH]c1=O (stereo not drawn) [Compound 42] | 200 | 158 | 316 | – | – | – | – |
| CCc1cc2ccc(C(C)(C#N)CCOc3ccc4c(c3)OCO4)cc2[nH]c1=O (stereo not drawn) [Compound 279] | 79.4 | – | – | – | – | 1260 | 1580 |
| CCc1cc2ccc(C(C)(C#N)Cc3c(C)c(C)cc(C)c3C)cc2[nH]c1=O (stereo not drawn) [Compound 88] | 1580 | > 10000 | 10000 | – | – | – | – |
| CCc1cc2ccc([C@@](C)(C#N)Cc3nc(OC)cc(OC)n3)cc2[nH]c1=O (single isomer, unassigned) [Compound 53] | 50.1 | – | – | – | – | 39.8 | 39.8 |
| CCc1cc2ccc(C(C)(C#N)Cc3ccc(C)c(F)c3F)cc2[nH]c1=O (stereo not drawn) [Compound 83] | 631 | 1000 | 2000 | – | – | – | – |
| CCc1cc2ccc(C(C)(C#N)Cc3cccc(CNCCOC)c3)cc2[nH]c1=O (stereo not drawn) [Compound 60] | 794 | 6310 | 7940 | – | – | – | – |
| CCc1cc2ccc(C(C)(C#N)Cc3cccc(C#N)c3)cc2[nH]c1=O (stereo not drawn) [Compound 51] | 126 | 126 | 200 | – | – | – | – |
| CCc1cc2ccc(C(C)(C#N)Cc3cccc(CN(C)C)c3)cc2[nH]c1=O (stereo not drawn) [Compound 7] | 1000 | 2510 | 7940 | – | – | – | – |
| CCc1cc2ccc(C(C)(C#N)Cc3c(C)c(C)c(C)c(C)c3C)cc2[nH]c1=O (stereo not drawn) [Compound 89] | 1580 | > 10000 | > 10000 | – | – | – | – |
| CCc1cc2ccc(C(C)(C#N)Cc3ccccc3C(F)(F)F)cc2[nH]c1=O (stereo not drawn) [Compound 103] | 1260 | 1000 | 631 | – | – | – | – |
| Cc1cc2ccc(C(C)(C#N)Cc3cccc4cccnc34)cc2[nH]c1=O (stereo not drawn) [Compound 74] | 1000 | 501 | 1000 | – | – | – | – |
| CCc1cc2ccc([C@](C)(C#N)Cc3ccccc3)cc2[nH]c1=O (single isomer, unassigned) [Compound 45] | 316 | > 10000 | > 10000 | – | – | – | – |
| Cc1cc2ccc(C(C)(C#N)Cc3ccc(Cl)s3)cc2[nH]c1=O (stereo not drawn) [Compound 72] | 1260 | 794 | 2000 | – | – | – | – |
| CCc1cc2ccc(C(C)(C#N)Cc3nc4ccccc4o3)cc2[nH]c1=O (stereo not drawn) [Compound 85] | 126 | 316 | 1000 | – | – | – | – |
| CCc1cc2ccc(C(C)(C#N)Cc3nncn3C)cc2[nH]c1=O (stereo not drawn) [Compound 93] | 126 | > 10000 | 10000 | – | – | – | – |
| CCc1cc2ccc(C(C)(C#N)Cc3csc(C)n3)cc2[nH]c1=O (stereo not drawn) [Compound 86] | 501 | 5010 | 6310 | – | – | – | – |
| CCc1cc2ccc(C(C)(C#N)Cc3nc(OC)cc(OC)n3)cc2[nH]c1=O (stereo not drawn) [Compound 43] | 200 | 158 | 158 | – | – | – | – |
| CCc1cc2ccc(C(C)(C#N)CCOc3ccc([N+](=O)[O-])cc3)cc2[nH]c1=O (stereo not drawn) [Compound 54] | 158 | 501 | 794 | – | – | – | – |
| CCc1cc2ccc(C(C)(C#N)Cc3cccc(CO)c3)cc2[nH]c1=O (stereo not drawn) [Compound 9] | 200 | 251 | 631 | – | – | – | – |
